Measured values as given in PMC4155172, “Killing of melanoma cells and their metastases by human lactoferricin derivatives requires interaction with the cancer marker phosphatidylserine” (Biometals, 2014).
Where a SMILES comes first, the peptide text is derived from it. The star is where a group is joined. Octanoyl(6-Me) = CCC(C)CCCCC(=O)*

Experiments:
[1] = Differential scanning calorimetry of DPPC liposomes; conditions: for Bilayer perturbation—DSC, healthy mimic: second symbol of cancer mimic/healthy mimic; on Bilayer perturbation—DSC, healthy mimic: key: +, peptide effect; ++, increasing peptide effect; +++: etc; ++++: etc; −, no peptide effect
Experimental: (§1) Appropriate amounts of respective phospholipid stock solution were dried under a stream of nitrogen and stored in vacuum overnight to completely remove organic solvents. The dry lipid film was then dispersed in phosphate buffered saline (PBS, 20 mM NaPi, 130 mM NaCl, pH 7.4) and hydrated at a temperature well above the gel to fluid phase transition of the respective phospholipid under intermittent vigorous vortex-mixing. The lipid concentration was 0.1 weight % for calorimetric and 2 % for leakage experiments. Hydration was carried out in presence or absence of peptides at a lipid-to-peptide ratio of 25:1 and 12.5:1 using a protocol described for POPS (Jiménez-Monreal et al. [1998]), DPPS (Jing et al. [2005]) and DPPC (Sevcsik et al. [2007]). Briefly hydration of POPS films occurred at 30 °C, DPPS at 65 °C and DPPC at 50 °C, for 2 h with vortexing for 1 min every 15 min. The hydration of the lipid mixtures DPPS/DPPC 1:5 and DPPS/DPPC 1:1 were performed at 65 °C for 2 h by vortexing accompanied by one freeze–thaw cycle every 15 min. The fully hydrated samples were stored for at least 1 h at room temperature until measurement.
(§2) DSC experiments were performed with a differential scanning calorimeter (VP-DSC) from MicroCal, Inc. (Northhampton, MA, USA). Heating scans were performed at a scan rate of 30 °C/h (pre-scan thermostating 30 min) with a final temperature of approximately 10 °C above the main transition temperature (Tm) and cooling scans at the same scan rate (pre-scan thermostating 1 min) with a final temperature approximately 20 °C below Tm. The heating/cooling cycle was performed three times. Enthalpies were calculated by integration of the peak areas after normalization to phospholipid concentration and baseline adjustment using the MicroCal Origin software (VP-DSC version). The phase transition temperature was defined as the temperature at the peak maximum (McElhaney [1982]).

[2] = Differential scanning calorimetry of DPPS liposomes; conditions: for Bilayer perturbation—DSC, cancer mimic: first symbol of cancer mimic/healthy mimic; on Bilayer perturbation—DSC, cancer mimic: key: +, peptide effect; ++, increasing peptide effect; +++: etc; ++++: etc; −, no peptide effect
Experimental: as §1, §2

[3] = test system: melanoma cell line SBcl-2; assay: Propidium iodide-uptake toxicity assay, melanoma SBcl-2; format: cell-based, human; parameters: Toxicity—PI uptake, cancer cells / Cancer specificity: key: +, peptide effect; ++, increasing peptide effect; +++: etc; ++++: etc; −, no peptide effect; conditions: for Toxicity—PI uptake, cancer cells: first symbol of cancer cells/healthy cells; on Toxicity—PI uptake, cancer cells: key: +, peptide effect; ++, increasing peptide effect; +++: etc; ++++: etc; −, no peptide effect
Excerpt: (§3) Epidermis was separated. […] All cell cultures were periodically checked for mycoplasma.

[4] = ANTS/DPX leakage from POPS LUVs; conditions: for ANTS/DPX release from POPS vesicles: 50 µM lipid LUVs; for specificity/selectivity for cancer over non-cancer mimic, ANTS/DPX leakage: POPS versus POPC LUVs; for Permeability—ANTS/DPX leakage, cancer mimic: first symbol of cancer mimic/healthy mimic
Experimental: as §1
(§4) Leakage of aqueous contents from liposomes was determined using the 8-aminonaphthalene-1,3,6-trisulfonic acid/p-xylene-bis-pyridinium bromide (ANTS/DPX) assay (Ellens et al. [1985]). Lipid films (preparation see above) were hydrated with 12.5 mM ANTS, 45 mM DPX, 68 mM NaCl, 10 mM HEPES (4-(2-hydroxyethyl)-1-piperazineethanesulfonic acid) at pH 7.4 following a standard procedure. Subsequently, the dispersions were extruded 20 times through a polycarbonate filter (Millipore-Isopore™) of 0.1 µm pore size to obtain LUVs. Unilamellarity and size were tested by X-ray and dynamic light scattering, respectively. The ANTS/DPX encapsulating vesicles were separated from free ANTS/DPX by exclusion chromatography using a column filled with Sephadex™ G-75 (Amesham Biosciences) fine gel swollen in an isosmotic buffer (10 mM HEPES, 140 mM NaCl, pH 7.4). The void volume fractions were collected and the phospholipid concentration was determined by phosphate analysis (Bartlett [1959]; Broekhuyse [2005]). The fluorescence measurements were performed in 2 mL of the isosmotic buffer in a quartz cuvette at 37 °C. Aliquots of LUVs were diluted with the isosmotic buffer to a final lipid concentration of 50 µM. Fluorescence spectra were obtained at 37 °C using an excitation wavelength of 360 nm, an emission wavelength of 530 nm and a slit width of 5 nm for both excitation and emission monochromators. Fluorescence emission was recorded as a function of time before and after the addition of incremental amounts of peptide. The fluorescence increase due to leakage and subsequent dilution of quenched dye was measured after addition of peptides. Peptides were added to final concentrations of 2, 4 and 8 µM, corresponding to peptide-to-lipid molar ratios of 1:25, 1:12.5 and 1:6.25, respectively. Data are presented in terms of fluorescence intensity (IF and were calculated using Eq. 3:3 IF=F-F0/Fmax-F0 F is the measured fluorescence, F0 the initial fluorescence without peptide and Fmax the fluorescence corresponding to 100 % leakage gained by addition of 1 % Triton X-100.

[5] = Differential scanning calorimetry of DPPC/DPPS 1:1 liposomes; conditions: lipid to peptide 25:1
Experimental: as §1, §2

[6] = test system: differentiated non-tumorigenic melanocytes; conditions: for melanocytes killed (PI-uptake): 20 µM peptide, 8 h, media containing serum
[7] = ANTS/DPX leakage from POPC LUVs; conditions: for Permeability—ANTS/DPX leakage, healthy mimic: second symbol of cancer mimic/healthy mimic; for ANTS/DPX release from POPC liposomes: 2–8 µM peptide
Experimental: [The procedure below names another target; the source lists this target under the same test.] as §1, §4

[8] = Tryptophan fluorescence and acrylamide quenching with DPPC membranes; conditions: second symbol of cancer mimic/healthy mimic; further: key: +, peptide effect; ++, increasing peptide effect; +++: etc; ++++: etc; −, no peptide effect
Experimental: as §1
(§5) Fluorescence spectroscopy experiments were performed using a SPEX Fluoro Max-3 spectrofluorimeter (Jobin–Yvon, Longjumeaum, France) and spectra were analyzed with Datamax software.
(§6) Tryptophan fluorescence spectra were obtained at room temperature using an excitation wavelength of 282 nm and a slit width of 5 nm for excitation and emission monochromators. Quenching of Tryptophan was carried out in the presence and absence of phospholipid liposomes (lipid-to-peptide ratio 25:1) using 0.1, 0.4 and 0.7 M acrylamide. The data were analyzed according to the Stern–Volmer equation (Eq. 2):2 F0F0FF=1+KSVQ where F0 and F represent the fluorescence emission intensities in the absence and presence of the quencher molecule (Q) and KSV is the Stern–Volmer quenching constant, which is a quantitative measure for the accessibility of tryptophan to acrylamide (Tao and Cho [1979]).

RBCs = conditions: 2.5 % RBCs, 500 µg peptide/ml; ref Zweytick et al. [2011b]; cited from earlier work
Excerpt: The correlation of activity against bacteria with activity on bacterial model systems for lactoferricin derived peptides and their N-acylated derivatives was shown recently (Zweytick et al. [2011b]).

[9] = Tryptophan fluorescence and acrylamide quenching with DPPS membranes; parameters: key: +, peptide effect; ++, increasing peptide effect; +++: etc; ++++: etc; −, no peptide effect; conditions: first symbol of cancer mimic/healthy mimic (PS)
Experimental: as §1, §5, §6

[10] = Differential scanning calorimetry of DPPC/DPPS 5:1 liposomes; conditions: lipid to peptide 25:1, split transition given as peak/peak
Experimental: as §1, §2

E. coli = conditions: ref Zweytick et al. [2011b]; cited from earlier work
Excerpt: It has been reported by Yang et al. (Yang et al. [2004]) that a prerequisite for antitumor but not for antibacterial peptides derived of bovine lactoferrin is a minimum net charge close to +7 and to consist of at least 14 amino acids.

[11] = test system: melanoma metastases WM164; assay: Propidium iodide-uptake toxicity assay, melanoma metastases WM164; format: cell-based, human; conditions: 20 µM peptide, 8 h
Excerpt: as §3

[12] = DPPC liposomes in PBS pH 7.4, lipid to peptide 25:1, scan rate 30 °C/h
[13] = DPPC liposomes, lipid to peptide 25:1
[14] = DPPC liposomes, lipid to peptide 25:1, transition half-width
[15] = 25:1 lipid-to-peptide molar ratio
[16] = DPPS liposomes, lipid to peptide 25:1, split transition given as peak/peak
[17] = 8 µM peptide (peptide-to-lipid 1:6.25), 10 mM HEPES 140 mM NaCl pH 7.4, 37 °C, fluorescence
[18] = DPPC liposomes, lipid to peptide 12.5:1
[19] = 50 µM lipid LUVs, pH 7.4, 37 °C

Row | Compound | ΔH pre [1, 12] [kcal/mol] | Tpre [1, 13] [°C] | ΔH m [1, 13] [kcal/mol] | T1/2 [1, 14] [°C] | Bilayer perturbation—DSC, healthy mimic [1] | reduction of the main transition enthalpy of DPPS [2, 15] [%] | T1/2 [2, 16] [°C] | Bilayer perturbation—DSC, cancer mimic [2] | specificity for cancer cells, PI-uptake ratio melanoma SBcl-2 versus melanocytes ([3]; 20 µM peptide, 8 h) | Toxicity—PI uptake, cancer cells [3] | ANTS/DPX release from POPS vesicles [4, 17] | specificity/selectivity for cancer over non-cancer mimic, ANTS/DPX leakage [4] | Permeability—ANTS/DPX leakage, cancer mimic [4] | T1/2 [5] [°C] | Tm [5] [°C] | ΔH m [5] [kcal/mol] | Toxicity—PI uptake, healthy cells [6] | Permeability—ANTS/DPX leakage, healthy mimic [7] | Bilayer affinity—quenching, healthy mimic [8] | Bilayer affinity—quenching, cancer mimic [9] | other results
1 | CCC(C)CCCCC(=O)N1CCC[C@H]1C(=O)N[C@@H](Cc1ccccc1)C(=O)N[C@@H](Cc1c[nH]c2ccccc12)C(=O)N[C@@H](CCCNC(=N)N)C(=O)N[C@H](C(=O)N[C@@H](CCCNC(=N)N)C(=O)N[C@H](C(=O)N[C@@H](CCCNC(=N)N)C(=O)N[C@@H](CCCNC(=N)N)C(N)=O)[C@@H](C)CC)[C@@H](C)CC (stereo partly drawn) [6-MO-LF11-322] ({Octanoyl(6-Me)}-PFWRIRIRR-NH2) | 0.4 | 34.6 | 9.1 | 0.26 | + | 35 | 2.24 | ++ | threefold to fourfold | ++ | ~70% | threefold | ++ | 2.45 | 43.3 | 5.4 | + | + | + | ++ | IC50 ([3]; PI-uptake, cancer cells, 8 h, media containing serum): ~20 µM; specificity for cancer cells after 1 h ([3]; after 1 h, data not shown): sevenfold; ANTS/DPX release from POPS vesicles ([4]; 4 µM peptide (peptide-to-lipid 1:12.5), pH 7.4, 37 °C): ~ 30%; melanocytes killed (PI-uptake) [6]: ~ 15%; leakage of POPC vesicles ([7]; peptide-to-lipid molar ratio of 1:6.25 (8 µM), 50 µM lipid LUVs, pH 7.4, 37 °C): about 20%; lysis of RBCs (RBCs): 20%
2 | PFWRIRIRR-NH2 [LF11-322] | 1.1 | 34.8 | 9.0 | 0.17 | − | 10 |  | + |  |  | ~ 20% |  | + | 2.42 | 44.2 | 8.3 |  | − | − | ++ | T1/2 [10]: 0.80 °C; Tm [10]: 42.4 °C; ΔH m [10]: 10.1 kcal/mol; T1/2 [1, 18]: 0.26 °C; Tm [1, 18]: 41.3 °C; Tpre [1, 18]: 34.5 °C; ΔH m [1, 18]: 9.2 kcal/mol; ΔH pre [1, 18]: 1.0 kcal/mol; Tm [1, 13]: 41.3 °C; minimal inhibitory concentration for E. coli (E. coli): 8 to 16 µg/mL; T1/2 ([2]; DPPS liposomes, lipid to peptide 12.5:1): 2.48 °C; killing (PI-uptake) of SBcl-2 ([3]; 80 µM peptide, 8 h, media containing serum, 37 °C): < 10%; specificity, PI-uptake ratio melanoma metastases WM164 versus melanocytes [11]: twofold; ANTS/DPX release from POPC liposomes [7, 19]: < 5%
3 | PFWRIRIRRPRRIRIRWFP-NH2 [R-DIM-P-LF11-322, retro repeat derivative: LF11-322-proline-LF11-322 retro] | 1.5 | 34.5 | 9.1 | 0.25 | − | 70 | 1.53 | +++ | higher than 1,000 fold | +++ | 90–100% | up to 20 fold | +++ | 1.08 | 42.4 | 7.9 | − | − | − | ++ | T1/2 [10]: 0.83 °C; Tm [10]: 42.2 °C; ΔH m [10]: 8.2 kcal/mol; Tm [1, 13]: 41.3 °C; decrease of the transition temperature of DPPS [2, 15]: ~5 °C; Tm [2, 16]: 47.9 °C; ΔH m [2, 16]: 3.1 kcal/mol; PI positive SBcl-2 cells ([3]; 20 µM peptide, 8 h, media containing serum): more than 80%; Cancer specificity ([3]; cancer cells/healthy cells): ++++; specificity, PI-uptake ratio melanoma metastases WM164 versus melanocytes [11]: > 500 fold; melanocytes killed (PI-uptake) [6]: < 1%; ANTS/DPX release from POPC liposomes [7, 19]: < 5%
